Assays:
IL-17A/F = molecular target: T1, IL-17A/F (Homo sapiens, UniProt Q16552+Q96PD4); assay: IL-17A/F HEK-Blue cell assay (SEAP reporter); assay type: cell-based; settings: HEK-Blue IL-17A reporter cells, IL17A/F 5 ng/mL, 20 hours, SEAP read at A630; read-out: HEK-Blue IL17AF (IC50 for IL-17A/F inhibition)
T1 construct: purchased R&D Systems
T1 sequence (Q16552 24-155): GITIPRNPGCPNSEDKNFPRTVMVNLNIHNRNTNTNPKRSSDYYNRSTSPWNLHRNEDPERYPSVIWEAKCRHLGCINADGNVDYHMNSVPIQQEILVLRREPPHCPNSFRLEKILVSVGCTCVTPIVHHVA
T1 sequence (Q96PD4 31-163): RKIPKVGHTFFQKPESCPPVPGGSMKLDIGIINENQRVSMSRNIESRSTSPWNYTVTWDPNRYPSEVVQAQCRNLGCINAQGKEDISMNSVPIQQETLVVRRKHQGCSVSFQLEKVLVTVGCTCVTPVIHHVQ

IL-17A/A = molecular target: T2, IL-17A/A (Homo sapiens, UniProt Q16552); assay: IL-17A/A HEK-Blue cell assay (SEAP reporter); assay type: cell-based; settings: HEK-Blue IL-17A reporter cells, IL17A/A 5 ng/mL, 20 hours, SEAP read at A630; read-out: HEK-Blue IL17AA (IC50 for IL-17A/A inhibition)
T2 construct: purchased Genscript Z03228
T2 sequence (Q16552 24-155): T1 sequence (Q16552 24-155)

`CCn1nccc1C(=O)N[C@H](c1cn2nc(C[C@H]3C[C@@H](C(F)(F)F)CNC3=O)c(N3CCN(C(C)(C)C)CC3)nc2n1)C1CCC(F)(F)CC1` [Compound 242, N—((S)-(3-(4-(tert-butyl)piperazin-1-yl)-2-(((3R,5R)-2-oxo-5-(trifluoromethyl)piperidin-3-yl)methyl)imidazo[1,2-b][1,2,4]triazin-6-yl)(4,4-difluorocyclohexyl)methyl)-1-ethyl-1H-pyrazole-5-carboxamide] was tested, and the IC50 (IL-17A/F) was 100 to 1000 nM and the IC50 (IL-17A/A) was < 100 nM.

For `O=C(N[C@H](c1cn2nc(C[C@H]3C[C@@H](C(F)(F)F)CNC3=O)c(C3CCS(=O)(=O)CC3)nc2n1)C1CCC(F)(F)CC1)c1nonc1C1CC1` [Compound 243, 4-cyclopropyl-N—((S)-(4,4-difluorocyclohexyl)(3-(1,1-dioxidotetrahydro-2H-thiopyran-4-yl)-2-(((3R,5R)-2-oxo-5-(trifluoromethyl)piperidin-3-yl)methyl)imidazo[1,2-b][1,2,4]triazin-6-yl)methyl)-1,2,5-oxadiazole-3-carboxamide], the IC50 (IL-17A/F) was > 1000 nM and the IC50 (IL-17A/A) was < 100 nM.

For `CCn1nccc1C(=O)N[C@H](c1cn2nc(C[C@H]3C[C@@H](C(F)(F)F)CNC3=O)c(N3CCN(CC4CC4)CC3)nc2n1)C1CCC(F)(F)CC1` [Compound 244, N—((S)-(3-(4-(cyclopropylmethyl)piperazin-1-yl)-2-(((3R,5R)-2-oxo-5-(trifluoromethyl)piperidin-3-yl)methyl)imidazo[1,2-b][1,2,4]triazin-6-yl)(4,4-difluorocyclohexyl)methyl)-1-ethyl-1H-pyrazole-5-carboxamide], the IC50 (IL-17A/F) was 100 to 1000 nM and the IC50 (IL-17A/A) was < 100 nM.

In the case of `CCn1nccc1C(=O)N[C@H](c1cn2nc(C[C@H]3C[C@@H](C(F)(F)F)CNC3=O)c(N3CCCOCC3)nc2n1)C1CCC(F)(F)CC1` [Compound 245, N—((S)-(3-(1,4-oxazepan-4-yl)-2-(((3R,5R)-2-oxo-5-(trifluoromethyl)piperidin-3-yl)methyl)imidazo[1,2-b][1,2,4]triazin-6-yl)(4,4-difluorocyclohexyl)methyl)-1-ethyl-1H-pyrazole-5-carboxamide], the IC50 (IL-17A/F) is reported as 100 to 1000 nM and the IC50 (IL-17A/A) is reported as < 100 nM.

In the case of `Cc1nccnc1C(=O)N[C@H](c1cn2nc(C[C@H]3C[C@@H](C(F)(F)F)CNC3=O)c(C3CCOCC3)nc2n1)C1CCC(F)(F)CC1` [Compound 246, N—((S)-(4,4-difluorocyclohexyl)(2-(((3R,5R)-2-oxo-5-(trifluoromethyl)piperidin-3-yl)methyl)-3-(tetrahydro-2H-pyran-4-yl)imidazo[1,2-b][1,2,4]triazin-6-yl)methyl)-3-methylpyrazine-2-carboxamide], the IC50 (IL-17A/F) is reported as > 1000 nM and the IC50 (IL-17A/A) is reported as 100 to 1000 nM.

`CCn1nccc1C(=O)N[C@H](c1cn2nc(C[C@H]3C[C@@H](C(F)(F)F)CNC3=O)c(N3C[C@@H](C)O[C@@H](C)C3)nc2n1)C1CCC(F)(F)CC1` [Compound 247, N—((S)-(4,4-difluorocyclohexyl)(3-((2R,6S)-2,6-dimethylmorpholino)-2-(((3R,5R)-2-oxo-5-(trifluoromethyl)piperidin-3-yl)methyl)imidazo[1,2-b][1,2,4]triazin-6-yl)methyl)-1-ethyl-1H-pyrazole-5-carboxamide] was tested, and the IC50 (IL-17A/F) was 100 to 1000 nM and the IC50 (IL-17A/A) was < 100 nM.

In the case of `CCn1ncnc1C(=O)N[C@H](c1cn2nc(C[C@H]3C[C@@H](C(F)(F)F)CNC3=O)c(C3CCS(=O)(=O)CC3)nc2n1)C1CCC(F)(F)CC1` [Compound 248, N—((S)-(4,4-difluorocyclohexyl)(3-(1,1-dioxidotetrahydro-2H-thiopyran-4-yl)-2-(((3R,5R)-2-oxo-5-(trifluoromethyl)piperidin-3-yl)methyl)imidazo[1,2-b][1,2,4]triazin-6-yl)methyl)-1-ethyl-1H-1,2,4-triazole-5-carboxamide], the IC50 (IL-17A/F) is reported as > 1000 nM and the IC50 (IL-17A/A) is reported as < 100 nM.

In the case of `O=C(N[C@H](c1cn2nc(C[C@H]3C[C@@H](C(F)(F)F)CNC3=O)c([C@H]3CCCOC3)nc2n1)[C@@H]1CCCC(F)(F)C1)c1nonc1C1CC1` [Compound 249], the IC50 (IL-17A/F) is reported as 100 to 1000 nM and the IC50 (IL-17A/A) is reported as < 100 nM.

With `CCn1nccc1C(=O)N[C@H](c1cn2nc(C[C@H]3C[C@@H](C(F)(F)F)CNC3=O)c(C34CCOC(C3)C4)nc2n1)C1CCC(F)(F)CC1` [Compound 250, N—((S)-(3-(2-oxabicyclo[3.1.1]heptan-5-yl)-2-(((3R,5R)-2-oxo-5-(trifluoromethyl)piperidin-3-yl)methyl)imidazo[1,2-b][1,2,4]triazin-6-yl)(4,4-difluorocyclohexyl)methyl)-1-ethyl-1H-pyrazole-5-carboxamide] the IC50 (IL-17A/F) was 100 to 1000 nM and the IC50 (IL-17A/A) was < 100 nM.

For `CCn1nccc1C(=O)N[C@H](c1cn2nc(C[C@H]3C[C@@H](C(F)(F)F)CNC3=O)c(C34COCC(C3)C4)nc2n1)C1CCC(F)(F)CC1` [Compound 253, N—((S)-(3-(3-oxabicyclo[3.1.1]heptan-1-yl)-2-(((3R,5R)-2-oxo-5-(trifluoromethyl)piperidin-3-yl)methyl)imidazo[1,2-b][1,2,4]triazin-6-yl)(4,4-difluorocyclohexyl)methyl)-1-ethyl-1H-pyrazole-5-carboxamide], the IC50 (IL-17A/F) was 100 to 1000 nM and the IC50 (IL-17A/A) was < 100 nM.

In the case of `CCn1nccc1C(=O)N[C@H](c1cn2nc(C[C@H]3C[C@@H](C(F)(F)F)CNC3=O)c(C34CCCC(C3)OC4)nc2n1)C1CCC(F)(F)CC1` (stereo partly drawn) [Compound 254, N-((1S)-(3-(6-oxabicyclo[3.2.1]octan-1-yl)-2-(((3R,5R)-2-oxo-5-(trifluoromethyl)piperidin-3-yl)methyl)imidazo[1,2-b][1,2,4]triazin-6-yl)(4,4-difluorocyclohexyl)methyl)-1-ethyl-1H-pyrazole-5-carboxamide], the IC50 (IL-17A/F) is reported as 100 to 1000 nM and the IC50 (IL-17A/A) is reported as < 100 nM.

`CCn1nccc1C(=O)N[C@H](c1cn2nc(C[C@H]3C[C@@H](C(F)(F)F)CNC3=O)c(C34COC(C3)C4)nc2n1)C1CCC(F)(F)CC1` [Compound 255, N—((S)-(3-(2-oxabicyclo[2.1.1]hexan-4-yl)-2-(((3R,5R)-2-oxo-5-(trifluoromethyl)piperidin-3-yl)methyl)imidazo[1,2-b][1,2,4]triazin-6-yl)(4,4-difluorocyclohexyl)methyl)-1-ethyl-1H-pyrazole-5-carboxamide] was tested, and the IC50 (IL-17A/F) was 100 to 1000 nM and the IC50 (IL-17A/A) was < 100 nM.

For `CC(F)(F)c1nocc1C(=O)N[C@H](c1cn2nc(C[C@H]3C[C@@H](C(F)(F)F)CNC3=O)c(C3CCOCC3)nc2n1)C1CCC(F)(F)CC1` [Compound 260, N—((S)-(4,4-difluorocyclohexyl)(2-(((3R,5R)-2-oxo-5-(trifluoromethyl)piperidin-3-yl)methyl)-3-(tetrahydro-2H-pyran-4-yl)imidazo[1,2-b][1,2,4]triazin-6-yl)methyl)-3-(1,1-difluoroethyl)isoxazole-4-carboxamide], the IC50 (IL-17A/F) was 100 to 1000 nM and the IC50 (IL-17A/A) was < 100 nM.

`CC(C)c1nc2nc([C@@H](NC(=O)c3ccnn3C)C3CCC(F)(F)CC3)cn2nc1C[C@H]1C[C@@H](C(F)(F)F)CNC1=O` [Compound 261, N—((S)-(4,4-difluorocyclohexyl)(3-isopropyl-2-(((3R,5R)-2-oxo-5-(trifluoromethyl)piperidin-3-yl)methyl)imidazo[1,2-b][1,2,4]triazin-6-yl)methyl)-1-methyl-1H-pyrazole-5-carboxamide] was tested, and the IC50 (IL-17A/F) was 100 to 1000 nM and the IC50 (IL-17A/A) was < 100 nM.

`Cn1nccc1C(=O)N[C@H](c1cn2nc(C[C@H]3C[C@@H](C(F)(F)F)CNC3=O)c(C3CCC(F)(F)CC3)nc2n1)C1CCC(F)(F)CC1` [Compound 262, N—((S)-(4,4-difluorocyclohexyl)(3-(4,4-difluorocyclohexyl)-2-(((3R,5R)-2-oxo-5-(trifluoromethyl)piperidin-3-yl)methyl)imidazo[1,2-b][1,2,4]triazin-6-yl)methyl)-1-methyl-1H-pyrazole-5-carboxamide] was tested, and the IC50 (IL-17A/F) was 100 to 1000 nM and the IC50 (IL-17A/A) was < 100 nM.

For `CCn1nccc1C(=O)N[C@H](c1cn2nc(C[C@H]3C[C@@H](C(F)(F)F)CNC3=O)c(C3(OC)CCOCC3)nc2n1)C1CCC(F)(F)CC1` [Compound 269, N—((S)-(4,4-difluorocyclohexyl)(3-(4-methoxytetrahydro-2H-pyran-4-yl)-2-(((3R,5R)-2-oxo-5-(trifluoromethyl)piperidin-3-yl)methyl)imidazo[1,2-b][1,2,4]triazin-6-yl)methyl)-1-ethyl-1H-pyrazole-5-carboxamide], the IC50 (IL-17A/F) was > 1000 nM and the IC50 (IL-17A/A) was < 100 nM.

In the case of `CCn1nccc1C(=O)N[C@H](c1cn2nc(C[C@H]3C[C@@H](C(F)(F)F)CNC3=O)c(C3(OC)CCC(F)(F)CC3)nc2n1)C1CCC(F)(F)CC1` [Compound 270, N—((S)-(3-(4,4-difluoro-1-methoxycyclohexyl)-2-(((3R,5R)-2-oxo-5-(trifluoromethyl)piperidin-3-yl)methyl)imidazo[1,2-b][1,2,4]triazin-6-yl)(4,4-difluorocyclohexyl)methyl)-1-ethyl-1H-pyrazole-5-carboxamide], the IC50 (IL-17A/F) is reported as > 1000 nM and the IC50 (IL-17A/A) is reported as < 100 nM.

In the case of `CCn1nccc1C(=O)N[C@H](c1cn2nc(C[C@H]3C[C@@H](C(F)(F)F)CNC3=O)c(C(C)(F)F)nc2n1)C1CCC(F)(F)CC1` [Compound 273, N—((S)-(4,4-difluorocyclohexyl)(3-(1,1-difluoroethyl)-2-(((3R,5R)-2-oxo-5-(trifluoromethyl)piperidin-3-yl)methyl)imidazo[1,2-b][1,2,4]triazin-6-yl)methyl)-1-ethyl-1H-pyrazole-5-carboxamide], the IC50 (IL-17A/F) is reported as > 1000 nM and the IC50 (IL-17A/A) is reported as < 100 nM.

Reference: patent US20260226068A1, “IMIDAZOTRIAZINE IL-17A MODULATORS AND USES THEREOF” (DICE ALPHA, INC., priority 2023, published 2026)
